Patent US20140017187A1, “Use of 5-(7-methoxy-3,3-dimethyl-2,3-dihydro-1-benzoxepin-5-yl)-3-methyl-penta-2,4-dienoic acid as a cosmetic” (Merck Patent GmbH, priority 2008, published 2014)

What was measured:
[1] = Mutagenicity studies (in house data)
human skin model = assay: cDNA microarray gene expression profiling (Affymetrix) of treated skin equivalents, GeneGO MetaCore analysis; format: cell-based
Description: One of the advantages of cDNA microarray is the possibility to observe the expression pattern of the whole genes and compare with different conditions. This is the first study to determine the gene expression profiles of Compound-treated human skin. For the analysis of deregulated gene expression induced by substance Compound, treated and control samples from a human skin model were analyzed with Affymetrix oligonucleotide microarrays. Skin has been among the first organs analysed using DNA-Microarrays. In addition, epidermal keratinocytes have been the target of many studies because they respond to a rich variety of inflammatory and immunmodulating cytokines, hormones, vitamins, ultraviolet (UV) light, toxins and physical injury. Altered gene expression after applying substance Compound was analysed with an Affymetrix system.
For gene expression studies skin equivalents were treated with 50 μL of 2 relevant substance Compound with a concentration of c=50 μM in PBS-buffer/DMSO. Buffer-treated skin equivalents served as controls.
A ratio (log 2) value of zero indicates no regulation, whereas positive (log 2) values indicate an upregulation and negative (log 2) values a downregulation of the relevant gene.
The experiment contains 759 genes with the specified threshold (Appendix A)
GeneGO's Metacore (Pathways and Maps) Software.
Enrichment analysis consists of matching gene IDs for the common, similar and unique sets of the uploaded files with gene IDs in functional ontologies in MetaCore. The ontologies include canonical pathway maps, GeneGo cellular processes, GO cellular processes and diseases categories. The degree of “relevance” to different categories for the uploaded datasets is defined by p-values, so that the lower p-value gets higher priority.

[2] = cDNA microarray, skin equivalents, 50 μM

COc1ccc2c(c1)C(/C=C/C(C)=C/C(=O)O)=CC(C)(C)CO2 [Compound, 5-(7-methoxy-3,3-dimethyl-2,3-dihydro-1-benzoxepin-5-yl)-3-methyl-penta-2,4-dienoic acid]
genotoxicity [1]: not genotoxic | Ratio as Log2 value, gene CASP14 (human skin model; Caspase 14 precursor, skin equivalents, 50 μM, vs buffer-treated control): 1.44 Log2 | Ratio as Log2 value, gene UGCG (human skin model; Ceramide glucosyltransferase, skin equivalents, 50 μM, vs buffer-treated control): 0.7977 Log2 | Ratio as Log2 value, gene CDSN (human skin model; Corneodesmosin precursor, skin equivalents, 50 μM, vs buffer-treated control): 1.207 Log2 | Ratio as Log2 value, gene ELF3 (human skin model; ETS-related transcription factor Elf-3, skin equivalents, 50 μM, vs buffer-treated control): −1.46 Log2 | Ratio as Log2 value, gene EMP1 (human skin model; Epithelial membrane protein 1, skin equivalents, 50 μM, vs buffer-treated control): 1.278 Log2 | Ratio as Log2 value, gene KRT34 (human skin model; Keratin, type I cuticular Ha4, skin equivalents, 50 μM, vs buffer-treated control): 1.695 Log2 | Ratio as Log2 value, gene KRT10 (human skin model; Keratin, type I cytoskeletal 10, skin equivalents, 50 μM, vs buffer-treated control): −0.6644 Log2 | Ratio as Log2 value, gene KRT13 (human skin model; Keratin, type I cytoskeletal 13, skin equivalents, 50 μM, vs buffer-treated control): −0.8963 Log2 | Ratio as Log2 value, gene LAMA3 (human skin model; Laminin subunit alpha-3 precursor, skin equivalents, 50 μM, vs buffer-treated control): 0.6648 Log2 | Ratio as Log2 value, gene LAMB3 (human skin model; Laminin subunit beta-3 precursor, skin equivalents, 50 μM, vs buffer-treated control): 1.168 Log2 | Ratio as Log2 value, gene LCE2B (human skin model; Late cornified envelope protein 2B, skin equivalents, 50 μM, vs buffer-treated control): 1.326 Log2 | Ratio as Log2 value, gene PTHLH (human skin model; Parathyroid hormone-related protein, skin equivalents, 50 μM, vs buffer-treated control): −0.7916 Log2 | Ratio as Log2 value, gene S100a7 (human skin model; Protein S100-A7, skin equivalents, 50 μM, vs buffer-treated control): −0.6784 Log2 | Ratio as Log2 value, gene OVOL1 (human skin model; Putative transcription factor Ovo-like 1, skin equivalents, 50 μM, vs buffer-treated control): 1.064 Log2 | expression of FABP4 and Leptin (human skin model; cDNA microarray data): significantly upregulated | expression of Caspase 14, P57/KIP2 (human skin model; [2]): significantly upregulated | expression of Fibronectin, Elastin and Laminin (human skin model; [2]): upregulated significantly | expression of HAS2 gene (hyaluronan synthase 2) (human skin model; [2]): upregulated | expression of IL-6, TNF-alpha induced proteins, IL-8, CCL8, CCL2, CXCL2, CXCL12, CXCL3, CXCL5 and ICAM-1 (human skin model; [2]): significantly downregulated | expression of MMP genes MMP9, MMP14, MMP11 (human skin model; [2]): down regulated | expression of RXRA (retinoid X receptors A) (human skin model; [2]): upregulation | expression of S100A7, S100A7A and S100A12 (human skin model; [2]): downregulated | expression of SCARB, INSIG2, ATP binding cassette and VLDLR genes (human skin model; [2]): upregulation | Compound vs. Control, ratio Log(2) value (human skin model; gene ABCG1 (ABCG1_HUMAN, ATP-binding cassette sub-family G member 1)): 1.297 Log(2) | Compound vs. Control, ratio Log(2) value (human skin model; gene CASP14 (CASPE_HUMAN, Caspase-14 precursor)): 1.44 Log(2) | Compound vs. Control, ratio Log(2) value (human skin model; gene CCL2 (CCL2_HUMAN, C-C motif chemokine 2 precursor)): −1.731 Log(2) | Compound vs. Control, ratio Log(2) value (human skin model; gene CCL8 (CCL8_HUMAN, C-C motif chemokine 8 precursor)): −2.505 Log(2) | Compound vs. Control, ratio Log(2) value (human skin model; gene CDKN1C (CDN1C_HUMAN, Cyclin-dependent kinase inhibitor 1C)): 0.8737 Log(2) | Compound vs. Control, ratio Log(2) value (human skin model; gene CERK (CERK1_HUMAN, Ceramide kinase)): 0.729 Log(2) | Compound vs. Control, ratio Log(2) value (human skin model; gene CLDN17 (CLD17_HUMAN, Claudin-17)): 2.19 Log(2) | Compound vs. Control, ratio Log(2) value (human skin model; gene COL4A3BP (C43BP_HUMAN, Collagen type IV alpha-3-binding protein)): 1.233 Log(2) | Compound vs. Control, ratio Log(2) value (human skin model; gene CXCL2 (MIP2A_HUMAN, Macrophage inflammatory protein 2-alpha precursor)): −1.267 Log(2) | Compound vs. Control, ratio Log(2) value (human skin model; gene CXCL3 (MIP2B_HUMAN, Macrophage inflammatory protein 2-beta precursor)): −0.723 Log(2) | Compound vs. Control, ratio Log(2) value (human skin model; gene CXCL5 (CXCL5_HUMAN, C-X-C motif chemokine 5 precursor)): −0.8263 Log(2) | Compound vs. Control, ratio Log(2) value (human skin model; gene CXCL12 (SDF1_HUMAN, Stromal cell-derived factor 1 precursor)): −0.8377 Log(2) | Compound vs. Control, ratio Log(2) value (human skin model; gene EGFR (EGFR_HUMAN, Epidermal growth factor receptor precursor)): 0.9876 Log(2) | Compound vs. Control, ratio Log(2) value (human skin model; gene ELF3 (ELF3_HUMAN, ETS-related transcription factor Elf-3)): −1.46 Log(2) | Compound vs. Control, ratio Log(2) value (human skin model; gene ELN (ELN_HUMAN, Elastin precursor)): 0.7751 Log(2) | Compound vs. Control, ratio Log(2) value (human skin model; gene EMP1 (EMP1_HUMAN, Epithelial membrane protein 1)): 1.278 Log(2) | Compound vs. Control, ratio Log(2) value (human skin model; gene EMR2 (EMR2_HUMAN, EGF-like module-containing mucin-like hormone receptor-like 2 precursor)): 1.286 Log(2) | Compound vs. Control, ratio Log(2) value (human skin model; gene FABP4 (FABPA_HUMAN, Fatty acid-binding protein, adipocyte)): 2.125 Log(2)
